Assay results taken from patent US12180181B1, “4-[4,5-bis(4-bromophenyl)-1-hexyl-1H-imidazol-2-yl]isoquinolin-3-ol as an antimicrobial compound” (KING FAISAL UNIVERSITY, priority 2023, dated 2024).

Experiments:
Assay type in all cases: cell-based
Settings in all cases: after 10, 20, 40 and 60 minutes at all dilutions 1:100, 1:200, 1:400, 1:800
Candida albicans = assay: Antimicrobial screening by agar dilution, Candida albicans
Description: (§1) The antimicrobial properties of the 4-[4,5-bis(4-bromophenyl)-1-hexyl-1H-imidazol-2-yl]isoquinolin-3-ol was studied by the method of agar dilution. Test solutions of each compound was prepared in concentration of 1% using dimethylformamide as a solvent then they are diluted in physiological solution to obtain the final experimental dilutions 1:100, 1:200, 1:400, 1:800. The effect of these substances are compared with furacillin in a controlled study. The testing microbes used were gram positive bacteria Staphylococcus aureus, gram negative bacteria Pseudomonas aeruginosa and Escherichia coli and Candida albicans fungi were taken. The experiments used for this survey were meat-pentonlu agar (EPA) for cultivation of bacteria and Saburo environment for fungi. Each experiment used 1 ml of test solution on each plate 500 min. Add 2 drops of emulsified with microbes feel. All experimental samples were taken from the agar after 10, 20, 40, 60 minutes in the environment on the basis of Patrk planted. Bacteria were cultivated at a temperature of 37° C. for 1 day and the mushroom was kept in a thermostat for […] at a temperature of 28° C. in the. Then results were checked.

Staphylococcus aureus = assay: Antimicrobial screening by agar dilution, Staphylococcus aureus
Description: as §1

Pseudomonas aeruginosa = assay: Antimicrobial screening by agar dilution, Pseudomonas aeruginosa
Description: as §1

Escherichia coli = assay: Antimicrobial screening by agar dilution, Escherichia coli
Description: as §1

Measured: inhibition activity (in words)

CCCCCCn1c(-c2c(O)ncc3ccccc23)nc(-c2ccc(Br)cc2)c1-c1ccc(Br)cc1 [4-[4,5-bis(4-bromophenyl)-1-hexyl-1H-imidazol-2-yl]isoquinolin-3-ol]
highest inhibition activity: all assays above
